Test results taken from patent US20050245508A1, “Treatment of malignant gliomas with TGF-beta inhibitors” (SCIOS, Inc., priority 2003, published 2005).

Key:
LN-308 targets = test: 51Cr release lysis assay, PBL or T cells precultured with irradiated glioma cells; type: cell-based, human; conditions: preexposure 1 μM during coculture with irradiated glioma cells, 4 h 51Cr release, FIG. 3A
Experimental: (§1) FIG. 3. Modulation of allogeneic anti-glioma immune responses by Compound No. 79 involves TGF-β antagonism. A. The lytic activity against LN-308 targets of PBL (squares) or purified T cells (triangles) preincubated with irradiated LN-308 cells in the absence (open symbols) or presence (filled symbols) of Compound No. 79 (1 μM) was determined in ^51Cr release assays. B-D. PBL were cultured in the absence (left) or presence (right) of irradiated LN-308 cells for 5 days. The cultures contained Compound No. 79 (1 μM) (filled bars) or not (open bars). Subsequently these effector cells were cocultured for 24 h with fresh non-irradiated LN-308 cells in the absence of Compound No. 79. The release of IFN-γ (B), TNF-α (C) or IL-10 (D) was assessed by Elispot assay. Data are expressed as cytokine-producing cells per 5×10^5 effector cells (n=3, *p<0.05, **p<0.01, t-test, effect of Compound No. 79). […]
HLA-A2-mismatched PBL or T cells (107/25 cm2 flask) were cocultured with 106 irradiated (30 Gy) glioma cells for 5 days. […] The maximum 51Cr release was determined by addition of NP40 (1%). After 4 h the supernatants were transferred to a Luma-PlateTM-96 (Packard, Dreieich, Germany) and measured. The percentage of 51Cr release was calculated as follows: 100×([experimental release−spontaneous release]/[maximum release−spontaneous release]).

SMA-560 glioma cells [1] = test: Glioma cell growth, [methyl-3H]-thymidine incorporation; type: cell-based, murine
Experimental: (§2) FIG. 2. Abrogation of autocrine TGF-β signaling in glioma cells by Compound No. 79. A. The cells were seeded at 10^4 cells/well in 96 well plates and cultured in the absence or presence of Compound No. 79 for 48 h in serum-free medium. Growth was assessed by [methyl-^3H]-thymidine incorporation at 48 h (*p<0.05, t-test). B. Lysates from untreated glioma cells or cells preexposed to Compound No. 79 (1 μM) for 24 h or exposed to TGF-b2 (5 ng/ml) for 1 h or both were assessed for the levels of p-Smad2 or total Smad2/3. Note that the antibodies were specific to p-Smad2 and total Smad 2 and 3, respectively.
(§3) The glioma cells and CCL64 cells were maintained in DMEM supplemented with 2 mM L-glutamine (Gibco Life Technologies, Paisley, UK), 10% FCS (Biochrom KG, Berlin, Germany) and penicillin (100 IU/ml)/streptomycin (100 μg/ml) (Gibco). Growth and viability of the glioma cells was examined by crystal violet, LDH release (Roche, Mannheim, Germany) and trypan blue dye exclusion assays. To assess clonogenicity, 500 SMA-560 cells were seeded into 6 well plates (9.4 cm^2). After formation of visible cell formations, colonies>20 cells were counted.

Smad2 phosphorylation = test: Immunoblot of p-Smad2 and total Smad2/3 in glioma cells; type: cell-based
Experimental: as §2
The levels of phosphorylated Smad2 (p-Smad2) protein levels were analyzed by immunoblot using 20 μg of protein per lane on a 12% acrylamide gel. After transfer to a PVDF membrane (Amersham, Braunschweig, Germany), the blots were blocked in PBS containing 5% skim milk and 0.05% Tween 20, and incubated overnight at 4° C. with p-Smad2 antibody (2 μg/ml). Visualization of protein bands was accomplished using horseradish peroxidase-coupled secondary antibody (Sigma) and enhanced chemiluminescence (Amersham). Total Smad2/3 levels were assessed using a specific Smad2/3 antibody (Becton-Dickinson).

LN-308 glioma cells [2] = test: Flow cytometric cell cycle analysis; type: cell-based, human; conditions: 0.01, 0.1 or 1 μM, 48 h, data not shown
Experimental: (§4) The adherent glioma cells were detached nonenzymatically using cell dissociation solution (Sigma). Cell cycle analysis was performed by using fixed and permeabilized glioma cells (70% ethanol). RNA was digested with RNase A (Life Technologies, Inc.). DNA was stained with propidium iodide (50 μg/ml).

LN-308 glioma cells [3] = test: Glioma cell growth, [methyl-3H]-thymidine incorporation; type: cell-based, human
Experimental: as §2, §3

SMA-560 glioma cells [4] = test: Flow cytometric cell cycle analysis; type: cell-based, murine; conditions: 0.01, 0.1 or 1 μM, 48 h, data not shown
Experimental: as §4

LN-308 glioma cells [5] = test: Cytotoxicity, LDH release and trypan blue dye exclusion; type: cell-based, human; conditions: up to 1 μM for 72 h
Experimental: as §3

[6] = test system: HLA-mismatched PBL cocultured with LN-308 cells; test: Cytokine release by immune effector cells, Elispot; type: cell-based, human; conditions: 1 μM
Experimental: as §1
IL-10, TNF-α and IFN-γ release by immune effector cells was assessed by Elispot assay in a multiscreen-HA 96 well plate (Millipore, Eschborn, Germany), coated with corresponding anti-human capture antibodies (Becton Dickinson). […] Spots were counted on an Elispot reader system (AID, Straβberg, Germany). […]

[7] = concentrations required to block TGF-β in the CCL64 bioassay, 48 h
[8] = higher concentrations of up to 1 μM, FIG. 2A

## Fc1ccc(Cl)cc1-c1nc(Nc2ccncc2)c2nccnc2n1 [Compound No. 79]
LN-308 targets
  lytic activity of HLA-A2-mismatched PBL or purified T cells: significantly enhanced
SMA-560 glioma cells [1]; [7]
  proliferation: no effect
SMA-560 glioma cells [1]; [8]
  growth: moderately inhibited
Smad2 phosphorylation; 1 μM 24 h, FIG. 2B
  total cellular Smad2/3 levels: without altering
Smad2 phosphorylation; 1 μM 24 h preexposure, TGF-β2 5 ng/ml 1 h, FIG. 2B
  Smad2 phosphorylation by endogenous or exogenous TGF-β: interfered with Smad2 phosphorylation
Smad2 phosphorylation; no exogenous TGF-β
  pSmad phosphorylation signal in untreated glioma cells: abolished
LN-308 glioma cells [2]
  cell cycle arrest: no specific type of cell cycle arrest
LN-308 glioma cells [3]; [7]
  proliferation: no effect
LN-308 glioma cells [3]; [8]
  growth: moderately inhibited
SMA-560 glioma cells [4]
  cell cycle arrest: no specific type of cell cycle arrest
LN-308 glioma cells [5]
  cytotoxic effects: neiter LDH release nor trypan blue dye exclusion assays revealed cytotoxic effects
[6]; PBL primed in presence of LN-308 cells, FIG. 3B
  IFN-γ release: restored the IFN-γ release to levels comparable to PBL pre-cultured in the absence of LN-308 cells
[6]; unstimulated and glioma cell-primed cultures, FIG. 3D
  IL-10 release: reduced
